In brackets after ≈: the same amount, converted by molar mass. Like-named read-outs stand apart in the source and are kept apart here. A value given as a limit tells only on which side of the number the result lay.

One series deals with HIV-1 (HTLV-IIIB). Briefly: microbe, parasite or virus in culture. The format is cell-based. The following applies: for EC50: Human immunodeficiency virus 1, MT4, 120 h, read-out: ED₅₀; for SI: Selectivity Index, ratio of CD₅₀ to ED₅₀, HIV-1, 7200 min. Here is the method:
(§1) The compounds of the invention were tested in a screen by the MTT method (J. Virol. Methods 120: 309-321 [1988]). MT-4 cells (2.5 x 10⁴ /well) were infected with HIV-1 (HTLV-IIIB) or HIV-2 (LAV-2 ROD) at a concentration of 100 CCID₅₀ and incubated in the presence of various concentrations of the test compounds, which were added immediately after infection with the virus. After 5 days culture at 37°C in a CO₂ incubator, the number of viable cells was assessed by the MTT (tetrazolium) method. […] The potential therapeutic usefulness was assessed by calculating a Selectivity Index (SI) corresponding to the ratio of CD₅₀ to ED₅₀. A control test was performed using the known anti-HIV treatment AZT.

The subject of another series is HIV-2 (LAV-2 ROD). The experiment in a line: MTT method anti-HIV screen in MT-4 cells infected with HIV-2. The format is cell-based. The following applies: for EC50: Human immunodeficiency virus 2, MT4, 120 h, read-out: ED₅₀; for EC50 / ED₅₀: antiviral activity, MT-4 cells infected with HIV-2 (LAV-2 ROD) at 100 CCID₅₀, 5 days; for SI: Selectivity Index, ratio of CD₅₀ to ED₅₀, HIV-2, 7200 min. As for the experimental part:
as §1
(In general: Formazan colour is commonly taken as a measure of viable cells.)

Series [1] is described as follows: Cytotoxicity by MTT method in MT-4 cells. Type of series: cell-based, human. The following applies: human, mt-4 cells, read-out: CD₅₀. As for the experimental part:
as §1

The next series concerns MT-4 cells. The experiment in a line: Cytotoxicity by MTT method in MT-4 cells. The format is cell-based, human. As for the experimental part: as §1
Setting [2] is: antiviral activity, MT-4 cells infected with HIV-1 (HTLV-IIIB) at 100 CCID₅₀, 5 days.

As for `C1CNCCNCCNCCNCCN1` [F, 1,4,7,10,13-pentazacyclopentadecane], the EC50 in the series on HIV-1 (HTLV-IIIB) (setting [2]) and with HIV-2 (LAV-2 ROD) was > 8 µg/mL throughout. In addition, the SI in the series with HIV-1 (HTLV-IIIB) and in the series with HIV-2 (LAV-2 ROD) was <1 throughout. Moreover, the CC50 at 120 h in series [1] (HIV-1, 5 days culture at 37°C) turned out to be 3.36 µg/mL (≈ 15.6 µM); in series [1] (HIV-2, 5 days culture at 37°C), 6.03 µg/mL (≈ 28 µM).
Regarding `Cc1cn([C@H]2C[C@H](N=[N+]=[N-])[C@@H](CO)O2)c(=O)[nH]c1=O` [AZT, reference compound], in the series with HIV-1 (HTLV-IIIB), the EC50 was < 0.008 µg/mL and the SI is >125. Moreover, the CC50 at 120 h in series [1] (HIV-1, 5 days culture at 37°C) was > 1 µg/mL.
As to `C1CNCCCNCCNCCCNC1` [B, 1,4,8,12-tetrazacyclopentadecane], the values for the EC50 in the series with HIV-1 (HTLV-IIIB) (setting [2]) and in the series on HIV-2 (LAV-2 ROD) were 30.3 µg/mL (≈ 141 µM) and 40.4 µg/mL (≈ 188 µM), respectively. In addition, the SI with HIV-1 (HTLV-IIIB) was determined as 15; in the series on HIV-2 (LAV-2 ROD), 12. Further, the CC50 at 120 h in series [1] (HIV-1, 5 days culture at 37°C) is 460 µg/mL (≈ 2140 µM); in series [1] (HIV-2, 5 days culture at 37°C), 487 µg/mL (≈ 2270 µM).
With [Cu cyclam]Cl₂ [X, reference compound], the ED₅₀ in the series on HIV-1 (HTLV-IIIB) (setting [2]) is >250 µg/mL.
As for “Zn complex of 1,5,9,13-tetrazacyclohexaadecane (Cl⁻) [Compound H]”, the figures for the ED₅₀ in the series on HIV-1 (HTLV-IIIB) (setting [2]) and in the series with HIV-2 (LAV-2 ROD) were 10.6 µg/mL and >100.0 µg/mL, respectively. Besides, the CD₅₀ with MT-4 cells (HIV-1, 5 days culture at 37°C) is 46.9 µg/mL; with MT-4 cells (HIV-2, 5 days culture at 37°C), 46.9 µg/mL.
As for `CC1CC(C)(C)NCCNC(C)CC(C)(C)NCCN1` (stereo not shown) [I, 5,5,7,12,12,14-hexamethyl-cyclam], the EC50 was 197 µg/mL (≈ 692 µM) in the series with HIV-1 (HTLV-IIIB) (setting [2]) and > 1000 µg/mL in the series on HIV-2 (LAV-2 ROD). Besides, the SI with HIV-1 (HTLV-IIIB) is 2; with HIV-2 (LAV-2 ROD) it was <1. Besides, the CC50 at 120 h in series [1] (HIV-1, 5 days culture at 37°C) came out at 432 µg/mL (≈ 1520 µM); in series [1] (HIV-2, 5 days culture at 37°C), 419 µg/mL (≈ 1470 µM).
For the compound `C1CCNCCCNCCNCCCNC1` [C, 1,4,8,13-tetrazacyclohexadecane. 4HCl], the EC50 with HIV-1 (HTLV-IIIB) (setting [2]) was 18.8 µg/mL; in the series on HIV-2 (LAV-2 ROD), > 500 µg/mL. Moreover, the SI is reported as 18 with HIV-1 (HTLV-IIIB) and <1 in the series on HIV-2 (LAV-2 ROD). Also, the CC50 at 120 h in series [1] (HIV-1, 5 days culture at 37°C) is 334 µg/mL; in series [1] (HIV-2, 5 days culture at 37°C) it was 341 µg/mL.
Take “c-[Rh cyclam (NO₂)₂]Cl [reference compound]”: in the series on HIV-1 (HTLV-IIIB) (setting [2]), the ED₅₀ was >250 µg/mL.
Regarding “Zn complex of 1,4,8,12-tetrazacyclopentadecane (Cl⁻) [G]”, the ED₅₀ was 6.96 µg/mL with HIV-1 (HTLV-IIIB) (setting [2]) and >1000.0 µg/mL in the series with HIV-2 (LAV-2 ROD). The CD₅₀ was found to be 194.2 µg/mL with MT-4 cells (HIV-1, 5 days culture at 37°C) and 218.3 µg/mL with MT-4 cells (HIV-2, 5 days culture at 37°C).
With `C1CNCCCNCCCNCCCNC1` [D, 1,5,9,13-tetrazacyclohexadecane], the EC50 in the series with HIV-1 (HTLV-IIIB) (setting [2]) is 0.3 µg/mL (≈ 1.31 µM); with HIV-2 (LAV-2 ROD), > 40 µg/mL. Also, the SI with HIV-1 (HTLV-IIIB) is 37; in the series on HIV-2 (LAV-2 ROD), <1. Besides, the CC50 at 120 h in series [1] (HIV-1, 5 days culture at 37°C) was 11.2 µg/mL (≈ 49 µM); in series [1] (HIV-2, 5 days culture at 37°C) it was 20.5 µg/mL (≈ 89.8 µM).
`C1CCNCCCNCCCNCCCNC1` [E, 1,5,9,14-tetrazacycloheptadecane]: the EC50 in the series with HIV-1 (HTLV-IIIB) (setting [2]) was 1.3 µg/mL (≈ 5.36 µM); in the series on HIV-2 (LAV-2 ROD), > 8 µg/mL. Further, the SI is 3 in the series with HIV-1 (HTLV-IIIB) and <1 in the series on HIV-2 (LAV-2 ROD). Also, the CC50 at 120 h in series [1] (HIV-1, 5 days culture at 37°C) was 3.35 µg/mL (≈ 13.8 µM); in series [1] (HIV-2, 5 days culture at 37°C), 5.06 µg/mL (≈ 20.9 µM).

Source of the values: EP0392666A2, “Anti-HIV compositions” (JOHNSON MATTHEY PUBLIC LIMITED COMPANY, priority 1989, dated 1990).
